Assay results from ChEMBL document CHEMBL1201862, “PubChem BioAssay data set” (2004).
The source made the active and inactive calls. For most assays here, no stated cut-off is given here; in the data, actives have a measured EC50 and inactives only a lower limit.

test system: Streptococcus; assay: Group A Streptococcus viability loss, dose response, counter-screen for streptokinase expression inhibitor project, luminescence, BacTiterGlo (AID 1915); format: functional, organism-based; details: not given;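 further: potency for reduction of bacterial viability or growth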

| Structure (SMILES) | EC50 |
| --- | --- |
| CCOC(=O)c1cc(-c2ccc3c(c2)OCCO3)nc2c1c(C)nn2CCC#N | 17.6 µM (active) |
| O=c1cc2c(nn1Cc1ccc(Cl)cc1Cl)-c1ccccc1CC2 | 17.6 µM (active) |
| Oc1cc(O)nc(SCc2ccc(Cl)cc2)n1 | > 150 µM (not active) |
| COc1ccc(S(=O)(=O)NCC(c2ccc(F)cc2)N2CCN(C)CC2)cc1 (configuration not stated) | > 150 µM (not active) |
| CCCCCCCCCCCCN1C(=O)CSC1c1cccnc1 (configuration not stated) | > 150 µM (not active) |
| COc1cc(-c2ccc(NC(=O)NC3CC3)c(OC)c2)ccc1NC(=O)NC1CC1 | 135 µM (active) |
| CCCCNc1c(-c2ccc(OC)c(SC3CCCCC3)c2)nc2cnccn12 | 8.16 µM (active) |
| COc1cccc(CNCC(O)(c2ccc(Cl)cc2)c2ccc(Cl)cc2)c1 | 18.2 µM (active) |
| Cc1ccccc1OCC(=O)Nc1ccccc1N1CCCCC1 | 17.9 µM (active) |
| Cc1cc(NC(=S)N(Cc2ccc(Cl)cc2)Cc2ccc(C(=O)O)cc2)ccc1Cl | > 150 µM (not active) |

molecular target: T1, Heat shock factor protein 1 (Mus musculus, UniProt P38532); assay: inhibition of MG132-induced HSE-luciferase signal, confirmation, cell-based, NIH3T3, luminescence, dose retest (AID 2382); format: functional; details: not given;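 further: NIH3T3 fibroblasts with HSF1-driven luciferase reporter stressed by proteasome inhibitor MG132; luminescence from HSF1-driven luciferase expression after 8 hours of MG132 stress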
T1 sequence (P38532 whole entry): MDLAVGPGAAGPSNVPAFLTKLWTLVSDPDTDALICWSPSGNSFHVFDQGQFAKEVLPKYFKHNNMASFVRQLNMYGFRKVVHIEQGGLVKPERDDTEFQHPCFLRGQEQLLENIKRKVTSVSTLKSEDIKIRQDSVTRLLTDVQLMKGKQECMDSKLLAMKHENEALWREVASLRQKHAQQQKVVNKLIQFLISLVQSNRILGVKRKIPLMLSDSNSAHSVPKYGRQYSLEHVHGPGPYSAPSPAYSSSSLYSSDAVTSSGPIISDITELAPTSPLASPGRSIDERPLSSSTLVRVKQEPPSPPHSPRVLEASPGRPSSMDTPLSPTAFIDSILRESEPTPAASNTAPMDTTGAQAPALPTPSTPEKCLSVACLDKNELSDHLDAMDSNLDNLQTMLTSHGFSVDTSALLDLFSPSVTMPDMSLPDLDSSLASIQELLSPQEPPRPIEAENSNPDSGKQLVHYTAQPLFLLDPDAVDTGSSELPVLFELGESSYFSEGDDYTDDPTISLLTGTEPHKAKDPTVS

| Structure (SMILES) | EC50 |
| --- | --- |
| CC(C)C[C@@H](CC#N)N1CCN(Cc2ccccc2)CCC1=O | > 195 µM (not active) |
| O=C(Nc1ccc(N2C(=O)C3C4C=CC(C4)C3C2=O)cc1)Nc1nncs1 (configuration not stated) | > 195 µM (not active) |
| COc1ccc(NC(=O)c2cccnc2)cc1OCC(C)C | > 195 µM (not active) |
| Cc1ccc(S(=O)(=O)N2CCC(C(=O)NNC(=O)c3ccncc3)CC2)cc1 | > 195 µM (not active) |
| CCOc1ccc(NC(=O)CCCNC(=O)Cn2cnc3sc(C)c(C)c3c2=O)cc1 | > 195 µM (not active) |
| O=C(Nc1ccc(N2CCOCC2)cc1)c1cc(-c2ccncc2)nc2ccccc12 | > 195 µM (not active) |
| CC1Cc2ccccc2N1C(=O)C12CCC(C)(C(=O)C1)C2(C)C (configuration not stated) | > 195 µM (not active) |
| COCCn1c(SCC(=O)c2cc(C)n(C)c2C)nc2ccccc2c1=O | > 195 µM (not active) |
| CC(=O)Nc1ccc(Cc2ccncc2)cc1 | > 195 µM (not active) |
| Fc1ccc(NC(S)=NCc2ccccc2)cc1 | > 195 µM (not active) |
| OC1(c2ccc(Br)cc2)CCN(Cc2cccc(Br)c2)CC1 | > 195 µM (not active) |
| COC(=O)c1ccc(CNC(=O)C(NC(=O)c2ccco2)C(C)C)cc1 (configuration not stated) | > 195 µM (not active) |
| Cn1c(=O)c2cn(Cc3ccc(Cl)cc3)cc2n(C)c1=O | > 195 µM (not active) |
| COC(=O)c1ccc(CN2CCN(CCc3ccccc3)C(CCO)C2)cc1 (configuration not stated) | > 195 µM (not active) |
| CCOC(=O)C1CCN(C(=O)CC(C)c2ccccc2)CC1 (configuration not stated) | 13.5 µM (active) |

test system: INS1; assay: beta cell apoptosis inhibitors, cytokine rescue, dose response, luminescence, retest (AID 449756); format: functional, cell-based; details: Rattus norvegicus;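 further: cell death triggered by IL-1 beta plus TNF-alpha plus IFN-gamma mixture; protective hits raise ATP signal compared with cytokine alone wells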

| Structure (SMILES) | AC50 |
| --- | --- |
| C=CCN(CC=C)Cc1c[nH]c2ccccc12 | > 260 µM (inactive) |

molecular target: T2, Protein RecA (Mycobacterium tuberculosis, UniProt P9WHJ3); assay: Fluorescence Cell-Free Homogeneous Dose Retest to Identify Inhibitors of RecA-Intein Splicing Activity. [Related pubchem assays (depositor defined):AID2097, AID2223, AID489010, AID492950]; format: functional; details: not given
T2 sequence (P9WHJ3 whole entry): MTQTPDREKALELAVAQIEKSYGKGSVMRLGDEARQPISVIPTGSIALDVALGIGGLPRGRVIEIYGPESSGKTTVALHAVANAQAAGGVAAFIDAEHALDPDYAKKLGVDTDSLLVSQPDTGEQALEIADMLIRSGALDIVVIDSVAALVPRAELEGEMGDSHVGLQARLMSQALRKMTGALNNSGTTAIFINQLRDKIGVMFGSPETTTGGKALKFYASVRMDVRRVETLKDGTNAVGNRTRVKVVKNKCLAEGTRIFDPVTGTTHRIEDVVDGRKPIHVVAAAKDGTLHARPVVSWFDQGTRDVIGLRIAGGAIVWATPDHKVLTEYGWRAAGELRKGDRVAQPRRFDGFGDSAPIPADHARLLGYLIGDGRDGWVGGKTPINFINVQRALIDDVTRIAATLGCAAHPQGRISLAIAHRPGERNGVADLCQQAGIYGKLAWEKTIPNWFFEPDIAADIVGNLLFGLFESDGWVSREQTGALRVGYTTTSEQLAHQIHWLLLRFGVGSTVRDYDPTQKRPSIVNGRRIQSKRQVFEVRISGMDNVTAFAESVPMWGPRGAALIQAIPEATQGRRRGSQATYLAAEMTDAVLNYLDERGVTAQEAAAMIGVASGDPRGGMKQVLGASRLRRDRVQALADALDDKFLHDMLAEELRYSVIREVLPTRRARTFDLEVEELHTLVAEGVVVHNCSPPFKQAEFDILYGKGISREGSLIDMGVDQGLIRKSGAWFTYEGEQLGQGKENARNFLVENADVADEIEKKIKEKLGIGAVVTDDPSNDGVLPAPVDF

| Structure (SMILES) | EC50 |
| --- | --- |
| Cc1ccccc1OCC(=O)Nc1ccccc1N1CCCCC1 | 242 µM (active) |

molecular target: T3, Streptokinase A (Streptococcus pyogenes serotype M1, UniProt P10520); assay: S. pyogenes streptokinase expression inhibitors, potency, dose response, plasminogen activation absorbance, OD405 (AID 1914); format: functional, Streptococcus pyogenes M1 GAS; details: not given;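 further: secreted streptokinase activity via plasminogen activation per viability signal from cell pellet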
T3 sequence (P10520 whole entry): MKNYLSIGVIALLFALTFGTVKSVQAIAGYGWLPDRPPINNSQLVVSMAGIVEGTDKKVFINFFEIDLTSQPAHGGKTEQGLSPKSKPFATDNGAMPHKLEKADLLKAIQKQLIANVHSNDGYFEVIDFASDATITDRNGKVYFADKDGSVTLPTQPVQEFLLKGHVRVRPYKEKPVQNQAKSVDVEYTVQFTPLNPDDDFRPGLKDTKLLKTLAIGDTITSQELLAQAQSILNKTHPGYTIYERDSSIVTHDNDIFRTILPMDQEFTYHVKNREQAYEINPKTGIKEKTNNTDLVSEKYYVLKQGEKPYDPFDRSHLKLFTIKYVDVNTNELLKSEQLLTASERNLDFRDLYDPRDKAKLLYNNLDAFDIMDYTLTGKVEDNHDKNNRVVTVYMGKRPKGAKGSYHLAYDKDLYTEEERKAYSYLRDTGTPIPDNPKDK

| Structure (SMILES) | EC50 |
| --- | --- |
| CCOC(=O)c1cc(-c2ccc3c(c2)OCCO3)nc2c1c(C)nn2CCC#N | > 150 µM (not active) |
| O=c1cc2c(nn1Cc1ccc(Cl)cc1Cl)-c1ccccc1CC2 | 11 µM (active) |
| Oc1cc(O)nc(SCc2ccc(Cl)cc2)n1 | > 150 µM (not active) |
| COc1ccc(S(=O)(=O)NCC(c2ccc(F)cc2)N2CCN(C)CC2)cc1 (configuration not stated) | > 150 µM (not active) |
| CCCCCCCCCCCCN1C(=O)CSC1c1cccnc1 (configuration not stated) | 20.4 µM (active) |
| COc1cc(-c2ccc(NC(=O)NC3CC3)c(OC)c2)ccc1NC(=O)NC1CC1 | > 150 µM (not active) |
| CCCCNc1c(-c2ccc(OC)c(SC3CCCCC3)c2)nc2cnccn12 | 6.56 µM (active) |
| COc1cccc(CNCC(O)(c2ccc(Cl)cc2)c2ccc(Cl)cc2)c1 | 18.9 µM (active) |
| Cc1ccccc1OCC(=O)Nc1ccccc1N1CCCCC1 | 14.2 µM (active) |
| Cc1cc(NC(=S)N(Cc2ccc(Cl)cc2)Cc2ccc(C(=O)O)cc2)ccc1Cl | > 150 µM (not active) |

test system: Streptococcus sp. 'group A'; assay: growth inhibition of control SK(-) GAS strain, dose response, counter-screen for streptokinase expression inhibitor project, luminescence, kanamycin, BacTiterGlo, confirmation (AID 1900); format: functional, organism-based; details: not given

| Structure (SMILES) | EC50 |
| --- | --- |
| CCOC(=O)c1cc(-c2ccc3c(c2)OCCO3)nc2c1c(C)nn2CCC#N | 4.49 µM (active) |
| O=c1cc2c(nn1Cc1ccc(Cl)cc1Cl)-c1ccccc1CC2 | 7.36 µM (active) |
| Oc1cc(O)nc(SCc2ccc(Cl)cc2)n1 | 81.5 µM (active) |
| COc1ccc(S(=O)(=O)NCC(c2ccc(F)cc2)N2CCN(C)CC2)cc1 (configuration not stated) | > 150 µM (not active) |
| CCCCCCCCCCCCN1C(=O)CSC1c1cccnc1 (configuration not stated) | 6.74 µM (active) |
| COc1cc(-c2ccc(NC(=O)NC3CC3)c(OC)c2)ccc1NC(=O)NC1CC1 | 117 µM (active) |
| CCCCNc1c(-c2ccc(OC)c(SC3CCCCC3)c2)nc2cnccn12 | 4.63 µM (active) |
| COc1cccc(CNCC(O)(c2ccc(Cl)cc2)c2ccc(Cl)cc2)c1 | 3.15 µM (active) |
| Cc1ccccc1OCC(=O)Nc1ccccc1N1CCCCC1 | 9.64 µM (active) |
| Cc1cc(NC(=S)N(Cc2ccc(Cl)cc2)Cc2ccc(C(=O)O)cc2)ccc1Cl | 10.1 µM (active) |
